Test results reported in patent US9238631B2, “Radiolabeled amino acids for diagnostic imaging” (PIRAMAL IMAGING SA, priority 2011, dated 2016).

How the values were obtained:
[1] = tested on: NCI-H460 tumor; test: PET imaging in NCI-H460 tumor bearing nude-rats; type: in vivo; conditions: PET ROI analysis, 1 h p.i.
Protocol: c) Beside PET-imaging studies in mice, also the imaging properties of [^18F]-12 in rats were examined. NCI-H460 tumor cells were inoculated into the right flank of nude-rats (RH-Foxn1 nu/nu) 8 to 10 days before the PET study. PET images were acquired at 60 min after injection of approximately 10 MBq for 10 minutes. The H460 tumor was nicely visible (0.9% ID/g as determined by ROI analysis). Beside some minor uptake into the liver and kidneys due to the excretion of the compound, no uptake into other non-target tissues was observed.
To test the imaging properties, compounds from the present invention were evaluated in PET imaging studies using tumor bearing rats. NCI-H460 tumor cells were inoculated into the right flank of nude-rats (RH-Foxn1 nu/nu) 8 to 10 days before the PET study. PET images were acquired at 60 min after injection of approximately 10 MBq for 10 minutes. After the imaging study, region-of-interest (ROI) analysis was performed and activity in tumor, liver and kidney was determined. […] High tumor uptake values of >1% […] in this rat model were obtained with various compounds from the present invention. A favorable clearance profile of all compounds enables excellent tumor detection in PET imaging studies in tumor bearing rats.

[2] = tested on: NCI-H460 tumor; test: In vivo biodistribution in NCI-H460 tumor bearing mice; conditions: for T/Blood / T/Muscle: 1 h post injection
Protocol: (§1) To test the pharmacokinetic properties of compounds from the present invention, all F18-labeled compounds were examined by biodistribution studies in NCI-H460 tumor bearing mice. Female NMRI (nu/nu) mice were inoculated with 5×10^6 NCI-H460 tumor cells 8 to 10 days before the biodistribution studies. 185 kBq of activity of the fluorinated compound was injected and at least n=3 mice were used for every time point. After injection of the F18-labeled compound, mice were sacrificed at defined time-points. All organs were removed and radioactivity was determined using a γ-counter.
To compare the tumor uptake and retention of radioactivity of different ^18F-labeled derivatives from the present invention, biodistribution studies were performed in NCI-H460 tumor bearing NMRI (nu/nu) mice as described above.
To compare the kidney clearance of several ^18F-labeled derivatives from the present invention, biodistribution studies were performed in NCI-H460 tumor bearing female NMRI (nu/nu) mice as described above. […] After 2 h p.i., less than 1% ID/g can be found in the kidneys.
For comparison of pancreas uptake and clearance of several ^18F-labeled derivatives from the present invention, biodistribution studies were performed in NCI-H460 tumor bearing NMRI (nu/nu) mice as described above. […] After 2 h p.i., less than 2% ID/g can be found in the pancreas.
as §1, with “and” for “for every time point. After injection of the F18-labeled compound, mice were”, “time-points raning from 15 min pi up to 2 h p.i.” for “time-points.”, “γ-counter. […] High tumor uptake values of >3% ID/g were obtained with various compounds from the present invention.” for “γ-counter.”

Row | SMILES | Kidney (% ID/g at 1 h p.i.) [1] [% ID/g] | Liver (% ID/g at 1 h p.i.) [1] [% ID/g] | Tumor (Max % ID/g at 1 h p.i.) [1] [% ID/g] | Tumor (Mean % ID/g at 1 h p.i.) [1] [% ID/g] | Kidney (% ID/g at 1 h p.i.) [2] [% ID/g] | Liver (% ID/g at 1 h p.i.) [2] [% ID/g] | Pancreas (% ID/g at 1 h p.i.) [2] [% ID/g] | Tumor (% ID/g at 1 h p.i.) [2] [% ID/g] | Urine (% ID at 1 h p.i.) [2] [% ID] | T/Blood [2] | T/Muscle [2] | tumor uptake and retention (summary statement) ([2]; mouse, in vivo)
1 | N[C@H](CCC(Cc1ccc(OCC[18F])cc1)C(=O)O)C(=O)O (stereo partly drawn) [[^18F]-16, (2R)-2-Amino-5-[4-(2-[^18F]fluoroethoxy)benzyl]hexanedioic acid] | 1.7 | 2.3 | 2.1 | 0.8 | 3.4 ± 0.3 | 3.3 ± 0.1 | 1.4 ± 0.1 | 3.6 ± 0.6 | 74.5 ± 6.8 | 14.1 | 54.2 | 
2 | N[C@@H](CC(Cc1ccc(OC[C@H](O)[C@@H](O)C[18F])cc1)C(=O)O)C(=O)O (stereo partly drawn) [[^18F]-58, 4-(4-{[(2S,3R)-4-(^18F)fluoro-2,3-dihydroxybutyl]oxy}benzyl)-L-glutamic acid] | 4.6 | 1.7 | 0.63 | 0.3 |  |  |  |  |  |  |  | 
3 | N[C@@H](CCC(Cc1ccc(OC[18F])cc1)C(=O)O)C(=O)O (single isomer, unassigned) [[^18F]-41 C5-2] | 0.2 | 0.2 | 4.4 | 2.0 | 2.4 ± 0.8 | 0.3 ± 0.1 | 1.1 ± 0.2 | 8.7 ± 1.9 | 83.5 ± 5.1 | 36.0 | 107.3 | 
4 | N[C@@H](CC(Cc1ccc(C[18F])cc1)C(=O)O)C(=O)O (stereo partly drawn) [[^18F]-66, 4-{4-[(^18F)fluoromethyl]benzyl}-L-glutamic acid] | 2.9 | 1.7 | 1.3 | 0.7 |  |  |  |  |  |  |  | 
5 | N[C@@H](C[C@@H](Cc1ccc(OC[18F])cc1)C(=O)O)C(=O)O [[^18F]-50, (4R)-4-{4-[(^18F)fluoromethoxy]benzyl}-L-glutamic acid] | 1.0 | 0.2 | 2.4 | 1.1 |  |  |  |  |  |  |  | 
6 | N[C@@H](CCC(Cc1ccc(NCC[18F])cc1)C(=O)O)C(=O)O (stereo partly drawn) [[^18F]-52, (2S)-2-amino-5-(4-{[2-(^18F)fluoroethyl]amino}benzyl)hexanedioic acid] |  |  |  |  | 3.5 ± 1.1 | 2.6 ± 0.4 | 7.5 ± 1.1 | 8.2 ± 2.1 | 66.8 ± 10.3 | 32.5 | 95.4 | high tumor uptake and retention
7 | N[C@@H](CC(Cc1ccc(OCC[18F])c[n+]1[O-])C(=O)O)C(=O)O (stereo partly drawn) [[^18F]-35, 4-{[5-(2-[^18F]fluoroethoxy)-1-oxidopyridin-2-yl]methyl}-L-glutamic acid] | 3.1 | 0.2 | 0.5 | 0.2 |  |  |  |  |  |  |  | 
8 | N[C@@H](CCC(Cc1ccc(OCC[18F])cc1)C(=O)O)C(=O)O (stereo partly drawn) [[^18F]-12 C5-1] [(2S)-2-amino-5-[4-([^18F]fluoroethoxy)benzyl]hexanedioic acid] | 0.8 | 1.2 | 3.4 | 1.3 |  |  |  |  |  |  |  | 
